Assay results from PubChem BioAssay (NCI).
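Results reflect a 48-hour exposure of cells in 96-well plates to compound at five concentrations. GI50 is the concentration that inhibits growth by half. The concentration for full growth arrest is given as TGI.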

Key:
Test in all cases: DTP human tumour cell line panel, 48 h
[1] = system: NCI-H460 lung
[2] = system: HL-60(TB) leukemia
[3] = system: HOP-92 NSCLC
[4] = system: HCC-2998 colon
[5] = system: K-562 leukemia
[6] = system: SK-MEL-2 melanoma
[7] = system: A549 NSCLC
[8] = system: U251 CNS
[9] = system: ACHN renal
[10] = system: MDA-MB-435

Row | Structure (SMILES) | TGI [1] | TGI [2] | TGI [3] | TGI [4] | TGI [5] | TGI [6] | TGI [7] | TGI [8] | TGI [9] | GI50 [1] | GI50 [4] | GI50 [6] | GI50 [7] | GI50 [8] | GI50 [10] | TGI [10] | GI50 [9] | GI50 [3] | GI50 [5]
1 | Clc1cc2nc[nH]c2cc1Cl | > 100 µM | > 100 µM | > 100 µM | > 100 µM | > 100 µM | > 100 µM | > 100 µM | > 100 µM | > 100 µM | – | – | – | – | – | – | – | – | – | –
2 | COc1ccc(Nc2[nH]n(C3=Nc4ccccc4Sc4ccccc43)c(=O)c2C#N)cc1 | 12 µM | – | – | 10.5 µM | – | 5 µM | > 100 µM | 43.3 µM | > 100 µM | 1.95 µM | 2.32 µM | 1.74 µM | 1.62 µM | 2.5 µM | 1.13 µM | 3.99 µM | 1.15 µM | – | –
3 | CCOC(=O)C1Nc2ccc([N+](=O)[O-])cc2[C@H]2OCC[C@@H]12 (stereo not given in full) | > 100 µM | > 100 µM | – | > 100 µM | > 100 µM | > 100 µM | > 100 µM | > 100 µM | > 100 µM | – | – | – | – | – | – | – | – | – | –
4 | O=C(NCCN1CCOCC1)Nc1nc2ccc(Sc3nnc4ccc(-c5ccc(F)cc5)nn34)cc2s1 | > 100 µM | – | > 100 µM | > 100 µM | > 100 µM | > 91.2 µM | > 100 µM | – | > 100 µM | – | 17.3 µM | > 44.3 µM | > 100 µM | – | – | > 100 µM | > 90.8 µM | 3.32 µM | 2.31 µM
5 | Nc1ncnc2c1ncn2C1OC(CO)CC1O (stereo not given) | – | – | > 100 µM | 43.7 µM | 42.8 µM | – | > 100 µM | > 100 µM | > 100 µM | – | – | – | – | – | – | – | – | – | –
6 | Cc1cc(N(CCC#N)CCC#N)ccc1/C=C(\NC(=O)/C=C/c1ccccc1)NC(=O)Nc1ccccc1C | > 100 µM | > 100 µM | 62 µM | > 100 µM | > 100 µM | > 100 µM | > 100 µM | 42.7 µM | > 100 µM | – | – | – | – | – | – | – | – | – | –
7 | O=C(/C=C/c1ccc[nH]1)c1ccccc1 | > 100 µM | > 100 µM | > 100 µM | – | > 100 µM | > 100 µM | > 100 µM | > 100 µM | > 100 µM | – | – | – | – | – | – | – | – | – | –
8 | Cc1ccc2oc(=O)cc(CC(=O)O)c2c1 | > 100 µM | > 100 µM | > 100 µM | > 100 µM | > 100 µM | > 100 µM | > 100 µM | > 100 µM | > 100 µM | – | – | – | – | – | – | – | – | – | –
9 | CCCCN1C(=O)C2c3[nH]c4ccccc4c3C3CCCCC3C2C1=O (mixture of isomers) | 31.2 µM | 29.1 µM | – | 62.4 µM | 28.3 µM | – | 45 µM | 36.3 µM | 27.7 µM | – | – | – | – | – | – | – | – | – | –
10 | CN(C)C(=O)C(NCCO)c1ccccc1 (stereo not given) | > 100 µM | – | > 100 µM | > 100 µM | – | > 100 µM | > 100 µM | > 100 µM | > 100 µM | – | – | – | – | – | – | > 100 µM | – | – | –
11 | O=c1/c(=C/c2ccccc2O)sc2nc3ccccc3n12 | > 100 µM | 26.8 µM | > 100 µM | > 100 µM | 99.5 µM | > 100 µM | > 100 µM | – | > 100 µM | – | – | – | – | – | – | – | – | – | –
